Patent publication US8771983B2, “Method and kit for expressing protein under regulation of the expression from repeated sequence formed by gene amplification, and transformant” (National University of Corporation Hiroshima University, priority 2004, dated 2014)

Assays:
[1] = test system: expression of d2EGFP in human colon cancer cell COLO 320DM cells; assay: Level of expression of d2EGFP by cell sorter after selection with stepwise increasing Blasticidin concentrations (Example 3); assay type: cell-based; settings: 1 μg/ml Doxycycline
Protocol: (§1) Fluorescence intensity of these cells were measured by using a cell sorter. The measurement was carried out by sorting 20,000 cells by setting living cells at a gate. The cell sorter used was made by Becton Dickinson, and operated under conditions as described in the manual attached thereto.
(§2) In this method for detecting the fluorescence intensity, detection limit was 1, and all fluorescence intensities of 1 or less would be detected as 1. In view of this, a product of a ratio (cell %) of cells of fluorescence intensities of 2 or more in all living cells (10,000 cells) and an average of the fluorescence intensities of the cells having fluorescence intensities of 2 or more was calculated out for each experimental plot. This product is referred to as “accumulated fluorescence intensity” hereinafter and in later Examples and shown in boxed letter in the figures.
A plasmid (pSFVdhfr/d2EGFP) was transfected into human colon cancer cell COLO 320DM cells by lipofection. The plasmid (pSFVdhfr/d2EGFP) was a plasmid having (a) IR and MAR derived from human DHFR gene locus, (b) Blasticidin tolerance gene, and (c) d2EGFP gene that was under control of TRE-promoter (Tetracycline inducing promoter). The transformed cells were selected with 5 μg/ml of Blasticidin (Funakoshi Corp.) thereby obtaining many transformed clones. After the clones were mixed, the culturing was continued. […] Cells select with the respective Blasticidin concentrations were treated with 1 μg/ml of Doxycycline (Clontech Laboratories Inc.) added to the media so as to activate TRE-promoter and thereby inducing expression of d2EGFP (whose half-life is much shorter than general EGFP.

[2] = test system: expression of d2EGFP in Tet-ON cells (COLO 320DM) transfected with pSFVdhfr/d2EGFP; assay: Level of expression of d2EGFP by cell sorter in HSR and DM clones of Tet-ON cells with 5-aza (Example 7); assay type: cell-based, human; settings: polyclonal population of Tet-ON cells with pSFVdhfr/d2EGFP; 5 μg/ml of Doxycycline
Protocol: as §1, §2
By lipofection, the pTet-ON plasmid (Clontech Laboratories Inc.) having Tet-ON gene encoding a transcription activating factor (Tet-ON protein) for promoting TRE-promoter was transfected into human colon cancer COLO 320DM. Transformed cells (hereinafter referred to as “Tet-ON cells”) which stably expressed Tet-ON protein, were selected with Hygromycin.
Next, the pSFVdhfr/d2EGFP plasmid was transfected into the Tet-ON cells by lipofection. The cells thus obtained were selected with 5 μg/ml of Blasticidin for approximately 3 weeks, thereby obtaining a polyclonal population of the stable transformed cells.
The expression of d2EGFP was induced in the polyclonal population by activating TRE-promoter by adding 5 μg/ml of Doxycycline (Clontech Laboratories Inc.) in the medium. FIG. 9 illustrates a result of analysis of the level of the expression of d2EGFP in this case by using a cell sorter. In FIG. 9, the value in parenthesis is an average of fluorescence intensities (i.e., average fluorescence intensity), and boxed value is an accumulated fluorescence intensity. Based on the result of FIG. 9, it was confirmed that the polyclonal population was a population for expressing d2EGFP (average fluorescence intensity: 6.25, accumulated fluorescence intensity: 536).
From the polyclonal population, given 30 clones were obtained by a limiting dilution method that was carried out by inoculating a clone to 6 well plates with such a low cell concentration of 30 cells/ml, and incubating the plates for 10 days to 2 weeks thereby obtaining colonies thereon.
From among the clones, 4 clones having high levels of expression of d2EGFP (Clone 4, Clone 5, Clone 6, and Clone 9) were selected by fluorescence microscopic observation. Mitotic chromosome samples of the 4 clones were prepared. By FISH method, detection for a base sequence derived from the transfected pSFVdhfr/d2EGFP plasmid was carried out. The preparation of mitotic chromosome samples and the FISH method were carried out as described in Shimizu, N., Kanda, T., and Wahl, G. M. Selective capture of acentric fragments by micronuclei provides a rapid method of purifying extrachromosomally amplified DNA. Nature Genet., 12: 65-71, 1996.
For 4 clones, induction with Doxycycline (Clontech Laboratories Inc.; 1 μg/ml) was carried out and 5-aza (0 μM, 1 μM or 3 μM) was added in the medium. After 1 week culturing, the level of expression of d2EGFP in each clone was analyzed by using a cell sorter.

[3] = test system: expression of d2EGFP in human colon cancer COLO 320DM cells; assay: Change over time of d2EGFP expression after induction with Doxycycline in cells cotransfected with pSFVdhfr/d2EGFP and pTet-ON plasmid (Example 8); assay type: cell-based; settings: polyclonal population
Protocol: as §1, §2
An equimolar mixture of a plasmid (pSFVdhfr/d2EGFP) and pTet-ON plasmid (Clontech Laboratories Inc.) was simultaneously transfected into human colon cancer COLO 320DM cells. The plasmid (pSFVdhfr/d2EGFP) was a plasmid having (a) IR and MAR derived from human DHFR gene locus, (b) Blasticidin tolerance gene, and (c) d2EGFP gene that was under control of TRE-promoter (Tetracycline inducing promoter). Meanwhile, the pTet-ON plasmid was a plasmid having Tet-ON gene encoding the transcription activating factor (Tet-ON protein) of TRE-promoter. The cells were selected with 5 μg/ml of Blasticidin thereby obtaining a polyclonal population of transformed cells. TRE-promoter was activated by adding 1 μg/ml of Doxycycline (Clontech Laboratories Inc.) in the medium of a cell culturing solution of the polyclonal population, thereby inducing the expression of d2EGFP.
Next, after the expression of d2EGFP was induced by Doxycycline, the level of the expression of d2EGFP was analyzed by using a cell sorter so as to find a change in the level of the expression of d2EGFP over time. […] In FIG. 16, the value in parenthesis is an average of fluorescence intensities (i.e., average fluorescence intensity), and boxed value is an accumulated fluorescence intensity.
FIG. 17 illustrates a graph plotting the averages (i.e., average fluorescence intensities: indicated by filled circles in FIG. 17) and living cell ratio (a ratio of living cells over total cell number: indicated by open circles) of the level of the expression of d2EGFP against time. […] The level was maintained high even after two weeks lapsed (labeled as “2wk” in FIG. 17).

[4] = test system: expression of d2EGFP in human colon cancer cells COLO 320DM cells; assay: Level of expression of d2EGFP after treatment of cells with 5-aza-2′-deoxycytidine and/or Trichostatin A (Example 6); assay type: cell-based
Protocol: as §1, §2
A mixture of a plasmid (pSFVdhfr/d2EGFP) and the plasmid DNA having the Aves-derived HS4 insulator sequence was transfected to human colon cancer cells COLO 320DM cells by lipofection. The plasmid (pSFVdhfr/d2EGFP) was a plasmid having (a) IR and MAR derived from human DHFR gene locus, (b) Blasticidin tolerance gene, and (c) d2EGFP gene that was under control of TRE-promoter (Tetracycline inducing promoter). The plasmid DNA having the Aves-derived HS4 insulator sequence was identical with the one described in Example 2. From 2 days later since the gene transfection, the cells were selected with 5 μg/ml of Blasticidin (Funakoshi Corp.). After 3 to 4 weeks, many colonies of transformed cells were obtained.
Into a culture solution of the transformed cells, of 1 μM or 3 μM of 5-aza-2′ deoxycytidine (hereinafter referred to as “5-aza” where appropriate; Sigma) was added. Thereby, the cells were treated with 5-aza for 3 days. For comparison purposes, 20 nM of Trichostatin A (hereinafter referred to as “TSA” where appropriate; histone deacetylation inhibitor, Sigma), which is known as a material for increasing gene expression from the repeated sequence, was added to some culture solutions of the transformed cells and analyzed.

[5] = pSFVdhfr/d2EGFP cells selected with 5 μg/ml of Blasticidin
[6] = pSFVdhfr/d2EGFP cells selected with 40 μg/ml of Blasticidin
[7] = pSFVdhfr/d2EGFP cells selected with 160 μg/ml of Blasticidin
[8] = pSFVdhfr/d2EGFP cells selected with 320 μg/ml of Blasticidin
[9] = fifteen hours after the addition of Doxycycline (1 μg/ml)
[10] = forty eight hours (2 days) after the addition of Doxycycline (1 μg/ml)
[11] = one hour after the addition of Doxycycline (1 μg/ml)
[12] = one hundred twenty hours (5 days) after the addition of Doxycycline (1 μg/ml)
[13] = six hours after the addition of Doxycycline (1 μg/ml)
[14] = three hours after the addition of Doxycycline (1 μg/ml)
[15] = twenty four hours after the addition of Doxycycline (1 μg/ml)
[16] = two weeks after the addition of Doxycycline (1 μg/ml)

Question: For `CN(CC[C@H](N)CC(=O)N[C@H]1C=C[C@H](n2ccc(N)nc2=O)O[C@@H]1C(=O)O)C(=N)N` [Blasticidin], which average fluorescence intensity ([1]; pSFVdhfr/d2EGFP cells selected with 10 ng/ml of Blasticidin) is on record?
Answer: 3.77

Question: What about the accumulated fluorescence intensity [1, 5] of the same compound?
Answer: 222

Question: And the average fluorescence intensity [1, 5]?
Answer: 2.94

Question: And the accumulated fluorescence intensity [1, 6]?
Answer: 640

Question: And the average fluorescence intensity [1, 6]?
Answer: 6.67

Question: What about the accumulated fluorescence intensity [1, 7] of the same compound?
Answer: 929

Question: What about the average fluorescence intensity [1, 7] of the same compound?
Answer: 9.47

Question: What about the accumulated fluorescence intensity [1, 8] of the same compound?
Answer: 1850

Question: And the average fluorescence intensity [1, 8]?
Answer: 18.55

Question: Which results are given for `C[C@H]1c2cccc(O)c2C(=O)C2=C(O)[C@]3(O)C(=O)C(C(N)=O)=C(O)[C@@H](N(C)C)[C@@H]3[C@@H](O)[C@@H]21` [Doxycycline]?
Answer: accumulated fluorescence intensity [2]: 536; average fluorescence intensity [2]: 6.25; accumulated fluorescence intensity [3, 9]: 841; average fluorescence intensity [3, 9]: 9.24; accumulated fluorescence intensity [3, 10]: 5320; average fluorescence intensity [3, 10]: 53.97; accumulated fluorescence intensity [3, 11]: 216; average fluorescence intensity [3, 11]: 2.99; accumulated fluorescence intensity [3, 12]: 3880; average fluorescence intensity [3, 12]: 39.56; survival ratio of the cells (living cell ratio) ([3]; expression of d2EGFP induced by Doxycycline, up to two weeks): no decrease in the survival ratio; accumulated fluorescence intensity [3, 13]: 341; average fluorescence intensity [3, 13]: 4.22; accumulated fluorescence intensity [3, 14]: 293; average fluorescence intensity [3, 14]: 3.72; accumulated fluorescence intensity [3, 15]: 2800; average fluorescence intensity [3, 15]: 28.77; accumulated fluorescence intensity [3, 16]: 3500; average fluorescence intensity [3, 16]: 35.32

Question: Which results are given for `CC(/C=C/C(=O)NO)=C\[C@@H](C)C(=O)c1ccc(N(C)C)cc1` [TSA, Trichostatin A]?
Answer: accumulated fluorescence intensity ([4]; 20 nM of TSA): 228; average fluorescence intensity ([4]; 20 nM of TSA): 3.02; effect on the expression of the target protein ([4]; 20 nM of TSA versus cells before treatment): cannot increase the expression of the target protein
